# Measured values: patent US10239832B2, “N-(1-hydroxy-3-(pyrrolidinyl)propan-2-yl)pyrrolidine-3-carboxamide derivatives as glucosylceramide synthase inhibitors” (BIOMARIN PHARMACEUTICAL INC., priority 2013, dated 2019)
# Molecular target: T1, GCS (Canis lupus familiaris, UniProt A0A8I3MXG6)
# T1 construct: endogenous in cells; host or cells: MDCK (Madin-Darby canine kidney) cells, whole-cell lysate
# T1 sequence (A0A8I3MXG6 1-394): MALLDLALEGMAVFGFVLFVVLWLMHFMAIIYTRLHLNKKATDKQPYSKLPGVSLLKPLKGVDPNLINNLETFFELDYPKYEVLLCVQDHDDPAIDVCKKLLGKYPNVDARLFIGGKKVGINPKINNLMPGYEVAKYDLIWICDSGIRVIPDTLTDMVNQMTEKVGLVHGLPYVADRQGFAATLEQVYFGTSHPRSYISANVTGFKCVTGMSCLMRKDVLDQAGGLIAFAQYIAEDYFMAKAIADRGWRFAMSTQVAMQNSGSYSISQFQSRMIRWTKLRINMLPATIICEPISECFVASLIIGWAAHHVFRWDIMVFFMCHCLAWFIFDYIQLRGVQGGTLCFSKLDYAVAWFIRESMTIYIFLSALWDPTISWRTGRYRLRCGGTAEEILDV
# Assay: GCS enzymatic assay (MDCK cell lysate, NBD-ceramide to glucosylceramide, LC/MS)
# Type: biochemical, canine
# Settings: Table 2; class symbols A, B, C; the table does not say which of the assays; read-out: Data Range (IC50 values)
# Method in brief: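 Dog MDCK cell lysate served as enzyme source, with NBD-ceramide turned over to glucosylceramide and 0.1% DMSO as mock control. The reaction was stopped with acetonitrile. Both lipids were quantified by LC/MS/MS in ESI positive MRM mode against a tolbutamide internal standard, giving IC50 or percent inhibition.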
row,SMILES,IC50 [nM]
1,"O=C(N[C@H](CN1CCCC1)[C@H](O)c1ccc(OC2CC2)c(Cl)c1)[C@@H]1CCN(c2ccc3cc(Cl)ccc3n2)C1 [Compound 100, (R)-N-((1R,2R)-1-(3-chloro-4-cyclopropoxyphenyl)-1-hydroxy-3-(pyrrolidin-1-yl)propan-2-yl)-1-(6-chloroquinolin-2-yl)pyrrolidine-3-carboxamide]",1 to 30
2,"O=C(N[C@H](CN1CCCC1)[C@H](O)c1ccc(OC2COC2)c(Cl)c1)[C@@H]1CCN(c2ccc3cc(F)ccc3c2)C1 [Compound 117, (R)-N-((1R,2R)-1-(3-chloro-4-(oxetan-3-yloxy)phenyl)-1-hydroxy-3-(pyrrolidin-1-yl)propan-2-yl)-1-(6-fluoronaphthalen-2-yl)pyrrolidine-3-carboxamide]",1 to 30
3,"O=C(N[C@H](CN1CCCC1)[C@H](O)c1ccc(OC2CC2)c(Cl)c1)[C@@H]1CCN(c2ccccn2)C1 [Compound 54, (R)-N-((1R,2R)-1-(3-chloro-4-cyclopropoxyphenyl)-1-hydroxy-3-(pyrrolidin-1-yl)propan-2-yl)-1-(pyridin-2-yl)pyrrolidine-3-carboxamide]",1 to 30
4,"O=C(N[C@H](CN1CCCC1)[C@H](O)c1ccc(OC2CC2)cc1)[C@@H]1CCN(c2ccc3cc(F)ccc3c2)C1 [Compound 162, (R)-N-((1R,2R)-1-(4-cyclopropoxyphenyl)-1-hydroxy-3-(pyrrolidin-1-yl)propan-2-yl)-1-(6-fluoronaphthalen-2-yl)pyrrolidine-3-carboxamide]",1 to 30
5,"O=C(N[C@H](CN1CCCC1)[C@H](O)c1ccc(OC2CCOCC2)c(Cl)c1)[C@@H]1CCN(c2ccc3cc(Cl)sc3c2)C1 [Compound 101, (R)-N-((1R,2R)-1-(3-chloro-4-((tetrahydro-2H-pyran-4-yl)oxy)phenyl)-1-hydroxy-3-(pyrrolidin-1-yl)propan-2-yl)-1-(2-chlorobenzo[b]thiophen-6-yl)pyrrolidine-3-carboxamide]",1 to 30
6,"O=C(N[C@H](CN1CCCC1)[C@H](O)c1ccc(OC2CC2)c(F)c1)[C@@H]1CCN(c2ccccc2)C1 [Compound 151, (R)-N-((1R,2R)-1-(4-cyclopropoxy-3-fluorophenyl)-1-hydroxy-3-(pyrrolidin-1-yl)propan-2-yl)-1-phenylpyrrolidine-3-carboxamide]",1 to 30
7,"O=C(N[C@H](CN1CCCC1)[C@H](O)c1ccc(OC2CCOCC2)c(Cl)c1)[C@@H]1CCN(c2ccc3ccccc3c2)C1 [Compound 94, (R)-N-((1R,2R)-1-(3-chloro-4-((tetrahydro-2H-pyran-4-yl)oxy)phenyl)-1-hydroxy-3-(pyrrolidin-1-yl)propan-2-yl)-1-(naphthalen-2-yl)pyrrolidine-3-carboxamide]",1 to 30
8,"CC(C)(O)COc1ccc([C@@H](O)[C@@H](CN2CCCC2)NC(=O)[C@@H]2CCN(c3ccc4ccccc4c3)C2)cc1Cl [Compound 107, (R)-N-((1R,2R)-1-(3-chloro-4-(2-hydroxy-2-methylpropoxy)phenyl)-1-hydroxy-3-(pyrrolidin-1-yl)propan-2-yl)-1-(naphthalen-2-yl)pyrrolidine-3-carboxamide]",1 to 30
9,"O=C(N[C@H](CN1CCCC1)[C@H](O)c1ccc(OC2CC2)nc1)[C@@H]1CCN(c2ccc(Cl)cc2)C1 [Compound 13, (R)-1-(4-chlorophenyl)-N-((1R,2R)-1-(6-cyclopropoxypyridin-3-yl)-1-hydroxy-3-(pyrrolidin-1-yl)propan-2-yl)pyrrolidine-3-carboxamide]",30 to 100
10,"O=C(N[C@H](CN1CCCC1)[C@H](O)c1ccc(OC2CCOCC2)c(Cl)c1)[C@@H]1CCN(c2ccc(F)cc2)C1 [Compound 32, (R)-N-((1R,2R)-1-(3-chloro-4-((tetrahydro-2H-pyran-4-yl)oxy)phenyl)-1-hydroxy-3-(pyrrolidin-1-yl)propan-2-yl)-1-(4-fluorophenyl)pyrrolidine-3-carboxamide]",1 to 30
11,"O=C(N[C@H](CN1CCCC1)[C@H](O)c1cc(F)c2c(c1)OCCO2)[C@@H]1CCN(c2ccc(Cl)cc2)C1 [Compound 2, (R)-1-(4-chlorophenyl)-N-((1R,2R)-1-(8-fluoro-2,3-dihydrobenzo[b][1,4]dioxin-6-yl)-1-hydroxy-3-(pyrrolidin-1-yl)propan-2-yl)pyrrolidine-3-carboxamide]",1 to 30
12,"Cn1ncc2ccc(N3CC[C@H](C(=O)N[C@H](CN4CCCC4)[C@H](O)c4ccc5c(c4)OCCO5)C3)cc21 [Compound 61D, (S)-N-((1R,2R)-1-(2,3-dihydrobenzo[b][1,4]dioxin-6-yl)-1-hydroxy-3-(pyrrolidin-1-yl)propan-2-yl)-1-(1-methyl-1H-indazol-6-yl)pyrrolidine-3-carboxamide]",1 to 30
13,"O=C(N[C@H](CN1CCC1)[C@H](O)c1cc(F)c2c(c1)OCCO2)[C@H]1CCN(c2ccc3cc(F)ccc3c2)C1 [Compound 47B, (S)-N-((1R,2R)-3-(azetidin-1-yl)-1-(8-fluoro-2,3-dihydrobenzo[b][1,4]dioxin-6-yl)-1-hydroxypropan-2-yl)-1-(6-fluoronaphthalen-2-yl)pyrrolidine-3-carboxamide]",30 to 100

# Same assay, conditions: Table 2; class symbols D, E, F, NA (not active); the table does not say which of the assays
row,SMILES,Data Range (% inhibition)
1,"O=C(N[C@H](CN1CCCC1)[C@H](O)c1ccc2c(c1F)OCCO2)[C@@H]1CCN(c2ccc(Cl)cc2)C1 [Compound 130, (R)-1-(4-chlorophenyl)-N-((1R,2R)-1-(5-fluoro-2,3-dihydrobenzo[b][1,4]dioxin-6-yl)-1-hydroxy-3-(pyrrolidin-1-yl)propan-2-yl)pyrrolidine-3-carboxamide]",E (50-74% (or less than 75%))
2,"O=C(N[C@H](CN1CCCC1)[C@H](O)c1ccc2c(c1)OCCO2)C1CCN(CC2(O)CCOCC2)C1 (stereo partly drawn) [Compound 5D, N-((1R,2R)-1-(2,3-dihydrobenzo[b][1,4]dioxin-6-yl)-1-hydroxy-3-(pyrrolidin-1-yl)propan-2-yl)-1-((4-hydroxytetrahydro-2H-pyran-4-yl)methyl)pyrrolidine-3-carboxamide]",F (1-49% (or less than 50%))
3,"O=C(N[C@H](CN1CCCC1)[C@H](O)c1ccc(OC2CC2)c(Cl)c1)C1CCN(c2ccc(Cl)cc2)C1 (stereo in doubt) [Compound 3B, (R)-N-((1R,2R)-1-(3-chloro-4-cyclopropoxyphenyl)-1-hydroxy-3-(pyrrolidin-1-yl)propan-2-yl)-1-(4-chlorophenyl)pyrrolidine-3-carboxamide]",F (1-49% (or less than 50%))
4,"O=C(N[C@H](CN1CCCC1)[C@H](O)c1ccc(OC2CC2)c(Cl)c1)C1CCN(c2ccc(C(F)(F)F)cc2)C1 (stereo partly drawn) [Compound 6, N-((1R,2R)-1-(3-chloro-4-cyclopropoxyphenyl)-1-hydroxy-3-(pyrrolidin-1-yl)propan-2-yl)-1-(4-(trifluoromethyl)phenyl)pyrrolidine-3-carboxamide]",F (1-49% (or less than 50%))
5,"O=C(N[C@H](CN1CCCC1)[C@H](O)c1ccc2c(c1)OCCO2)[C@@H]1CCN(c2ccc3c(c2)CCCC3)C1 [Compound 80, (R)-N-((1R,2R)-1-(2,3-dihydrobenzo[b][1,4]dioxin-6-yl)-1-hydroxy-3-(pyrrolidin-1-yl)propan-2-yl)-1-(5,6,7,8-tetrahydronaphthalen-2-yl)pyrrolidine-3-carboxamide]",E (50-74% (or less than 75%))
